Target: T1, CD73 (Calu-6 cells) (Homo sapiens, UniProt P21589)
T1 construct: endogenous in cells; host or cells: Calu-6 cells
T1 sequence (P21589 27-549): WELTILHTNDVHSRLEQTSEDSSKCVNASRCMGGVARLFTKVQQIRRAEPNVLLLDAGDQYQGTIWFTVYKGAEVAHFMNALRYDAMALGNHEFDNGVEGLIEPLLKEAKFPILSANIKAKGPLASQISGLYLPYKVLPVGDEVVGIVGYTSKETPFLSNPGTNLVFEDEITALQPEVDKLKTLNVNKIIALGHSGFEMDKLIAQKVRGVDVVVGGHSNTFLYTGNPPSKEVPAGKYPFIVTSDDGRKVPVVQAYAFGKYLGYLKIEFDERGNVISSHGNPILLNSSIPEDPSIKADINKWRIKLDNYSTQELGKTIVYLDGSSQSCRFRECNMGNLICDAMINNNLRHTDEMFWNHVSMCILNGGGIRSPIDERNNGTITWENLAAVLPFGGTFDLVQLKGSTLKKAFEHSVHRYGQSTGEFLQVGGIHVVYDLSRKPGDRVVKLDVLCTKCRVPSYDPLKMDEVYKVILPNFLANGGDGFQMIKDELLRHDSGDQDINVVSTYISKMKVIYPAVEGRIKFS
Assay: Enzymatic activity detection at the cellular level (Calu-6 cells, AMP substrate, Cell-titer Glo luminescence)
Format: cell-based
Details: enzymatic IC50 at the Calu-6 cell level, 30 min pre-incubation, 120 min at 37° C.
Experimental: The Calu-6 cells were digested and re-suspended using TM buffer (25 mM Tris, 5 mM MgCl2, pH 7.5). Calu-6 cell suspension was seeded into 96 well cell culture plate, and the number of cells per well was 2.5×10^4, adding volume of 100 μL/well. Compound solution with gradient concentration was prepared by TM buffer, and 50 μL DMSO solution with different concentration was added into each pore cell. […] Pre-incubated in a shaker at 37° C. for 30 min. Each well was added with 50 μL 800 μM AMP solution. The shaker at 37° C. for 120 min was continued to incubate, then the 96-well plates were centrifuged and 50 μL supernatant was transferred to the new 96-well plates. […] The luminescence value was read by the multi-function enzymatic reader and converted into the inhibition percentage: Inhibition percentage=(1−reading/Max)*100. The “maximum value” was DMSO control. IC50 values were obtained by curve fitting with GraphPad Prism software.

Q: For `C=C[C@H]1C[C@@H]1c1cc(-c2c[nH]c(=O)[nH]c2=O)nnc1Cl` [Compound 13, 5-(6-chloro-5-((1S,2R)-2-vinylcyclopropyl)pyridazin-3-yl)pyrimidine-2,4(1H,3H)-dione], which IC50 is on record?
A: 8.5 nM

Q: Which IC50 does the source give for `O=c1[nH]cc(-c2cc([C@H]3C[C@@H]3c3ccccc3)c(Cl)nn2)c(=O)[nH]1` [Compound 57, 5-(6-chloro-5-((S,2S)-2-phenylcyclopropyl)pyridazin-3-yl)pyrimidine-2,4(1H,3H)-dione] here?
A: 1.3 nM

Q: For `O=c1[nH]cc(-c2cc([C@H]3C[C@@H]3c3ccccc3)cnn2)c(=O)[nH]1` [Compound 59, 5-(5-((1S,2S)-2-phenylcyclopropyl)pyridazin-3-yl)pyrimidine-2,4(1H,3H)-dione], which IC50 is on record?
A: 9.9 nM

Q: Which IC50 does the source give for `O=c1[nH]cc(-c2cc([C@H]3C[C@@H]3c3nc4ccccc4[nH]3)c(Cl)nn2)c(=O)[nH]1` [Compound 60, 5-(5-((1S,2S)-2-(1H-benzo[d]imidazol-2-yl)cyclopropyl)-6-chloropyridazin-3-yl)pyrimidine-2, 4(1H,3H)-dione] here?
A: 23.3 nM

Q: For `Cc1ccc(C2CC2c2cc(-c3c[nH]c(=O)[nH]c3=O)nnc2Cl)c(C)c1` (stereo not drawn) [Compound 61], which IC50 is on record?
A: 19 nM

Q: With `Cc1ccc(C2CC2c2cc(-c3c[nH]c(=O)[nH]c3=O)nnc2Cl)cc1C` (stereo not drawn) [Compound 62] as the compound, how does the IC50 read?
A: 5.6 nM

Q: With `Cc1cc(C)cc(C2CC2c2cc(-c3c[nH]c(=O)[nH]c3=O)nnc2Cl)c1` (stereo not drawn) [Compound 63] as the compound, how does the IC50 read?
A: 19 nM

Q: For `CC(C)c1ccc(C2CC2c2cc(-c3c[nH]c(=O)[nH]c3=O)nnc2Cl)cc1` (stereo not drawn) [Compound 64], which IC50 is on record?
A: 22.3 nM

Q: Which IC50 does the source give for `Cc1ccc(C2CC2c2cc(-c3c[nH]c(=O)[nH]c3=O)nnc2Cl)cc1F` (stereo not drawn) [Compound 65] here?
A: 4.7 nM

Q: With `O=c1[nH]cc(-c2cc(C3CC3c3ccc(C(F)(F)F)cc3)c(Cl)nn2)c(=O)[nH]1` (stereo not drawn) [Compound 66] as the compound, how does the IC50 read?
A: 3.9 nM

Q: Which IC50 does the source give for `O=c1[nH]cc(-c2cc(C3CC3c3cccc(C(F)(F)F)c3)c(Cl)nn2)c(=O)[nH]1` (stereo not drawn) [Compound 67] here?
A: 7.3 nM

Q: For `O=c1[nH]cc(-c2cc(C3CC3c3ccc(C(F)(F)F)c(F)c3)c(Cl)nn2)c(=O)[nH]1` (stereo not drawn) [Compound 68], which IC50 is on record?
A: 15 nM

Q: With `O=c1[nH]cc(-c2cc(C3CC3c3ccc(F)c(C(F)(F)F)c3)c(Cl)nn2)c(=O)[nH]1` (stereo not drawn) [Compound 69] as the compound, how does the IC50 read?
A: 13.4 nM

Q: Which IC50 does the source give for `O=c1[nH]cc(-c2cc(C3CC3c3cccc(F)c3F)c(Cl)nn2)c(=O)[nH]1` (stereo not drawn) [Compound 70] here?
A: 7 nM

Q: With `O=c1[nH]cc(-c2cc(C3CC3c3ccc(F)cc3F)c(Cl)nn2)c(=O)[nH]1` (stereo not drawn) [Compound 71] as the compound, how does the IC50 read?
A: 4.6 nM

Q: With `O=c1[nH]cc(-c2cc(C3CC3c3c(F)cc(F)cc3F)c(Cl)nn2)c(=O)[nH]1` (stereo not drawn) [Compound 72] as the compound, how does the IC50 read?
A: 4.9 nM

Q: With `O=c1[nH]cc(-c2cc(C3CC3c3cc(F)c(F)cc3F)c(Cl)nn2)c(=O)[nH]1` (stereo not drawn) [Compound 73] as the compound, how does the IC50 read?
A: 5.9 nM

Q: With `O=Cc1ccc(C2CC2c2cc(-c3c[nH]c(=O)[nH]c3=O)nnc2Cl)cc1` (stereo not drawn) [Compound 74] as the compound, how does the IC50 read?
A: 2.7 nM

Q: Which IC50 does the source give for `O=C(O)c1cccc(C2CC2c2cc(-c3c[nH]c(=O)[nH]c3=O)nnc2Cl)c1` (stereo not drawn) [Compound 75] here?
A: 32 nM

Q: For `O=c1[nH]cc(-c2cc(C3CC3c3ccc(-c4ccccc4)cc3)c(Cl)nn2)c(=O)[nH]1` (stereo not drawn) [Compound 76], which IC50 is on record?
A: 51.9 nM

Q: With `COc1nnc(-c2c[nH]c(=O)[nH]c2=O)cc1C1CC1c1ccc(C#N)cc1` (stereo not drawn) [Compound 77, 4-(2-(6-(2,4-dioxo-1,2,3,4-tetrahydropyrimidin-5-yl)-3-methoxypyridazin-4-yl)cyclopropyl)benzonitrile] as the compound, how does the IC50 read?
A: 7.2 nM

Q: Which IC50 does the source give for `N#Cc1ccc(C2CC2c2cc(-c3c[nH]c(=O)[nH]c3=O)nnc2C#N)cc1` (stereo not drawn) [Compound 78, 4-(2-(4-cyanophenyl)cyclopropyl)-6-(2,4-dioxo-1,2,3,4-tetrahydropyrimidin-5-yl)pyridazine-3-carbonitrile] here?
A: 8.5 nM

Q: For `Cc1nnc(-c2c[nH]c(=O)[nH]c2=O)cc1C1CC1Cc1ccccc1` (stereo not drawn) [Compound D2, reference compound], which IC50 is on record?
A: 114 nM

Q: Which IC50 does the source give for `O=c1[nH]cc(-c2cc([C@@H]3C[C@H]3c3ccccc3)c(Cl)nn2)c(=O)[nH]1` [Compound D3, reference compound] here?
A: 1430 nM

System: not listed separately
Assay: Pharmacokinetic evaluation in mice after intragastric administration (plasma concentration by LC/MS/MS)
Format: in vivo
Details: mouse, Balb/C female mice, single PO 10 mg/kg
Experimental: LC/MS/MS method was used to determine the plasma concentration of the embodiment compound at different time after intragastric administration in mice. Study the pharmacokinetic behavior of the compound in mice and evaluate its pharmacokinetic characteristics.
Methods: A single PK study (PO, 10 mg/kg) was performed on healthy Balb/C female mice (about 20 g) purchased from Beijing Vital River Laboratory Animal Technology Co., Ltd. About 1 hour before administration, a certain amount of drug was weighed and added with 5% DMSO and 95% hydroxypropyl betascyclodextrin (HP-β-CD) solution to form a colorless and clear solution. HP-β-CD solution is a 20% HP-β-CD solution prepared by adding HP-p-CD powder into 0.9% normal saline. Intragastric administration was performed at the dosage volume of 10 mL/kg, and blood was collected through the orbital venous plexus of mice. The blood collection time points were as follows: At 0.25, 0.5, 1.0, 2.0, 4.0, 7.0 and 24.0 hours before and after drug administration, 100 uL whole blood to K2EDTA anticoagulant tubes were taken at each time point, and the collected whole blood samples were centrifuged at 4000 rpm for 10 min. The plasma was separated and stored in the refrigerator at −80° C.
The above plasma samples were added to the pure acetonitrile solution containing the inner target for protein precipitation pre-treatment, centrifugation was performed at 10000 rpm for 10 min, and the supernatant was taken, mixed with water 1:1, and 10 μL to LC-MS/MS was used for detection. The linear range of compounds detected in plasma samples was 1-1000 ng/mL, and the data results were as follows:
The compound of the invention has good pharmacokinetic absorption and obvious pharmacokinetic advantages.

Q: Which results are given for `C=C[C@H]1C[C@@H]1c1cc(-c2c[nH]c(=O)[nH]c2=O)nnc1Cl` [Compound 13, 5-(6-chloro-5-((1S,2R)-2-vinylcyclopropyl)pyridazin-3-yl)pyrimidine-2,4(1H,3H)-dione]?
A: AUC: 16900 ng·h/mL; Cmax: 10400 ng/mL; Tmax: 30 min

Q: Which results are given for `O=c1[nH]cc(-c2cc([C@H]3C[C@@H]3c3ccccc3)c(Cl)nn2)c(=O)[nH]1` [Compound 57, 5-(6-chloro-5-((S,2S)-2-phenylcyclopropyl)pyridazin-3-yl)pyrimidine-2,4(1H,3H)-dione]?
A: AUC: 10700 ng·h/mL; Cmax: 5410 ng/mL; Tmax: 30 min

Q: Which AUC does the source give for `Cc1nnc(-c2c[nH]c(=O)[nH]c2=O)cc1[C@H]1C[C@@H]1C(C)C` [Compound D1, reference compound] here?
A: 677 ng·h/mL

Q: And the Cmax?
A: 547 ng/mL

Q: What about the Tmax of the same compound?
A: 30 min
